Laboratory results from PubChem BioAssay AID2060899 (Molecular Pharmacology Branch, DTP, NCI, 2025).

Test system: 565726-208-R1-J5-PDC complex spheroids, growth inhibition
Assay: Anticancer human tumor 565726-208-R1-J5-PDC patient-derived pancreatic adenocarcinoma cell line growth inhibition [RAS]
Conditions: for IC50: curve of first compound; for viability, T/C: stronger effect = lower value
Procedure, shortened: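 Agents were tested in combination matrices in half-log decrements from a top concentration at or near clinical Cmax (10 microM if undetermined). Targets were multi-cell spheroids of tumour lines plus HUVEC and MSC stromal cells.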
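Note: spheroids exposed to compounds for seven days before readout.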
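Throughout, for viability, T/C: 100% = DMSO vehicle control viability.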

Q: `CC(=O)OC12COC1CC(O)C1(C)C(=O)C(O)C3=C(C)C(OC(=O)C(O)C(NC(=O)OC(C)(C)C)c4ccccc4)CC(O)(C(OC(=O)c4ccccc4)C21)C3(C)C` (centres undefined) + C=CC(=O)N1CCN(c2nc(OCC3CCCN3C)nc3c(F)c(-c4nc(N)cc(C)c4C(F)(F)F)c(Cl)cc23)C(C)C1 was tested. Which IC50 (second compound 0.00316 µM) did it give?
A: < 31.6 nM

Q: What about the IC50 (second compound 0.01 µM) of the same molecule?
A: < 31.6 nM

Q: And the IC50 (second compound 0.0316 µM)?
A: < 31.6 nM

Q: What about the IC50 (second compound 0.1 µM) of the same molecule?
A: < 31.6 nM

Q: And the IC50 (second compound 0.316 µM)?
A: < 31.6 nM

Q: And the IC50 (second compound 1 µM)?
A: < 31.6 nM

Q: And the viability, T/C (second compound 0.00316 µM, first compound 0.0316 µM)?
A: 22.4%

Q: And the viability, T/C (second compound 0.00316 µM, first compound 0.1 µM)?
A: 20.6%

Q: And the viability, T/C (second compound 0.00316 µM, first compound 0.316 µM)?
A: 22.6%

Q: And the viability, T/C (second compound 0.00316 µM, first compound 1 µM)?
A: 19.4%

Q: What about the viability, T/C (second compound 0.00316 µM, first compound 3.16 µM) of the same molecule?
A: 30%

Q: And the viability, T/C (second compound 0.00316 µM, first compound 10 µM)?
A: 37.1%

Q: And the viability, T/C (second compound 0.01 µM, first compound 0.0316 µM)?
A: 25%

Q: What about the viability, T/C (second compound 0.01 µM, first compound 0.1 µM) of the same molecule?
A: 21.8%

Q: What about the viability, T/C (second compound 0.01 µM, first compound 0.316 µM) of the same molecule?
A: 21.1%

Q: And the viability, T/C (second compound 0.01 µM, first compound 1 µM)?
A: 23.5%

Q: What about the viability, T/C (second compound 0.01 µM, first compound 3.16 µM) of the same molecule?
A: 32.6%

Q: What about the viability, T/C (second compound 0.01 µM, first compound 10 µM) of the same molecule?
A: 47.7%

Q: What about the viability, T/C (second compound 0.0316 µM, first compound 0.0316 µM) of the same molecule?
A: 31.6%

Q: And the viability, T/C (second compound 0.0316 µM, first compound 0.1 µM)?
A: 26.6%

Q: And the viability, T/C (second compound 0.0316 µM, first compound 0.316 µM)?
A: 24.9%

Q: What about the viability, T/C (second compound 0.0316 µM, first compound 1 µM) of the same molecule?
A: 21%

Q: What about the viability, T/C (second compound 0.0316 µM, first compound 3.16 µM) of the same molecule?
A: 29.5%

Q: What about the viability, T/C (second compound 0.0316 µM, first compound 10 µM) of the same molecule?
A: 44.8%

Q: And the viability, T/C (second compound 0.1 µM, first compound 0.0316 µM)?
A: 26%

Q: What about the viability, T/C (second compound 0.1 µM, first compound 0.1 µM) of the same molecule?
A: 23%

Q: And the viability, T/C (second compound 0.1 µM, first compound 0.316 µM)?
A: 26%

Q: What about the viability, T/C (second compound 0.1 µM, first compound 1 µM) of the same molecule?
A: 19%

Q: What about the viability, T/C (second compound 0.1 µM, first compound 3.16 µM) of the same molecule?
A: 27.7%

Q: And the viability, T/C (second compound 0.1 µM, first compound 10 µM)?
A: 42.8%

Q: And the viability, T/C (second compound 0.316 µM, first compound 0.0316 µM)?
A: 21.1%

Q: And the viability, T/C (second compound 0.316 µM, first compound 0.1 µM)?
A: 26.6%

Q: And the viability, T/C (second compound 0.316 µM, first compound 0.316 µM)?
A: 22.4%

Q: What about the viability, T/C (second compound 0.316 µM, first compound 1 µM) of the same molecule?
A: 24.9%

Q: What about the viability, T/C (second compound 0.316 µM, first compound 3.16 µM) of the same molecule?
A: 28%

Q: And the viability, T/C (second compound 0.316 µM, first compound 10 µM)?
A: 45.9%

Q: What about the viability, T/C (second compound 1 µM, first compound 0.0316 µM) of the same molecule?
A: 34.8%

Q: And the viability, T/C (second compound 1 µM, first compound 0.1 µM)?
A: 24.1%

Q: What about the viability, T/C (second compound 1 µM, first compound 0.316 µM) of the same molecule?
A: 22.1%

Q: What about the viability, T/C (second compound 1 µM, first compound 1 µM) of the same molecule?
A: 26.4%

Q: And the viability, T/C (second compound 1 µM, first compound 3.16 µM)?
A: 34.4%

Q: And the viability, T/C (second compound 1 µM, first compound 10 µM)?
A: 50.1%

Q: `CC1(C)CCC(Nc2ncc(C(F)(F)F)c(-c3c[nH]c4c(P(C)(C)=O)c(C#N)ccc34)n2)CN1` (centres undefined) + C=CC(=O)N1CCN(c2nc(OCC3CCCN3C)nc3c(F)c(-c4nc(N)cc(C)c4C(F)(F)F)c(Cl)cc23)C(C)C1 was tested. Which IC50 (second compound 0.00316 µM) did it give?
A: 6.76 nM

Q: And the IC50 (second compound 0.01 µM)?
A: 7.74 nM

Q: What about the IC50 (second compound 0.0316 µM) of the same molecule?
A: 5.42 nM

Q: What about the IC50 (second compound 0.1 µM) of the same molecule?
A: 5.76 nM

Q: What about the IC50 (second compound 0.316 µM) of the same molecule?
A: 6.16 nM

Q: What about the IC50 (second compound 1 µM) of the same molecule?
A: 6.81 nM

Q: What about the viability, T/C (second compound 0.00316 µM, first compound 0.000949 µM) of the same molecule?
A: 133%

Q: And the viability, T/C (second compound 0.00316 µM, first compound 0.003 µM)?
A: 73.7%

Q: And the viability, T/C (second compound 0.00316 µM, first compound 0.00949 µM)?
A: 40.1%

Q: What about the viability, T/C (second compound 0.00316 µM, first compound 0.03 µM) of the same molecule?
A: 40.4%

Q: And the viability, T/C (second compound 0.00316 µM, first compound 0.0949 µM)?
A: 41.2%

Q: What about the viability, T/C (second compound 0.00316 µM, first compound 0.3 µM) of the same molecule?
A: 37.3%

Q: And the viability, T/C (second compound 0.01 µM, first compound 0.000949 µM)?
A: 136%

Q: What about the viability, T/C (second compound 0.01 µM, first compound 0.003 µM) of the same molecule?
A: 74.6%

Q: And the viability, T/C (second compound 0.01 µM, first compound 0.00949 µM)?
A: 46%

Q: What about the viability, T/C (second compound 0.01 µM, first compound 0.03 µM) of the same molecule?
A: 34.2%

Q: And the viability, T/C (second compound 0.01 µM, first compound 0.0949 µM)?
A: 41.3%

Q: And the viability, T/C (second compound 0.01 µM, first compound 0.3 µM)?
A: 39.9%

Q: What about the viability, T/C (second compound 0.0316 µM, first compound 0.000949 µM) of the same molecule?
A: 127%

Q: What about the viability, T/C (second compound 0.0316 µM, first compound 0.003 µM) of the same molecule?
A: 65.8%

Q: And the viability, T/C (second compound 0.0316 µM, first compound 0.00949 µM)?
A: 34.2%

Q: And the viability, T/C (second compound 0.0316 µM, first compound 0.03 µM)?
A: 28.4%

Q: What about the viability, T/C (second compound 0.0316 µM, first compound 0.0949 µM) of the same molecule?
A: 39.7%

Q: What about the viability, T/C (second compound 0.0316 µM, first compound 0.3 µM) of the same molecule?
A: 37.7%

Q: And the viability, T/C (second compound 0.1 µM, first compound 0.000949 µM)?
A: 143%

Q: And the viability, T/C (second compound 0.1 µM, first compound 0.003 µM)?
A: 67.7%

Q: What about the viability, T/C (second compound 0.1 µM, first compound 0.00949 µM) of the same molecule?
A: 33.7%

Q: And the viability, T/C (second compound 0.1 µM, first compound 0.03 µM)?
A: 36.8%

Q: And the viability, T/C (second compound 0.1 µM, first compound 0.0949 µM)?
A: 39%

Q: What about the viability, T/C (second compound 0.1 µM, first compound 0.3 µM) of the same molecule?
A: 36.5%

Q: What about the viability, T/C (second compound 0.316 µM, first compound 0.000949 µM) of the same molecule?
A: 130%

Q: What about the viability, T/C (second compound 0.316 µM, first compound 0.003 µM) of the same molecule?
A: 67.3%

Q: And the viability, T/C (second compound 0.316 µM, first compound 0.00949 µM)?
A: 40.2%

Q: And the viability, T/C (second compound 0.316 µM, first compound 0.03 µM)?
A: 32.5%

Q: What about the viability, T/C (second compound 0.316 µM, first compound 0.0949 µM) of the same molecule?
A: 38%

Q: What about the viability, T/C (second compound 0.316 µM, first compound 0.3 µM) of the same molecule?
A: 34.6%

Q: What about the viability, T/C (second compound 1 µM, first compound 0.000949 µM) of the same molecule?
A: 140%

Q: And the viability, T/C (second compound 1 µM, first compound 0.003 µM)?
A: 70.2%

Q: What about the viability, T/C (second compound 1 µM, first compound 0.00949 µM) of the same molecule?
A: 41.7%

Q: And the viability, T/C (second compound 1 µM, first compound 0.03 µM)?
A: 38.9%

Q: What about the viability, T/C (second compound 1 µM, first compound 0.0949 µM) of the same molecule?
A: 36.5%

Q: And the viability, T/C (second compound 1 µM, first compound 0.3 µM)?
A: 38.9%
